According to patent publication US4024139A, “2,3,4,4A-Tetrahydro-10H-1,2-oxazino[3,2-b](1,3)benzoxazin-10-ones” (Carter-Wallace, Inc., priority 1972, dated 1977):

System: hind paw edema induced by carrageenin in the rat
Assay: hind paw edema induced by carrageenin in the rat (anti-inflammatory activity, oral)
Type: in vivo, rat (male, Sprague-Dawley)
Conditions: oral intubation 1 h before carrageenin, foot volume 3 h later, ED50 = dose in which edema formation is inhibited by 25 percent or more in 50 percent of the rats vs. mean of controls
Description: The procedure described below (Winters et al, Proc. Soc., Exp. Biol. Med., 111, 544, 1962) was used to establish the effectiveness of these compounds in the hind paw edema induced by carrageenin in the rat.
Male rats of the Sprague-Dawley strain (Charles River Laboratories) weighing 100 ± 20 grams were used for this study. Six animals were used for each drug dose. The drug was suspended in 1 percent aqueous solution of gum acacia, and each rat received 10 ml/kg of the appropriate concentration of drug suspension by oral intubation; controls were given a similar volume of the vehicle. One hour later, edema in the right hind paw was induced by the subplantar injection of 0.05 ml. of 1 percent calcium carrageenin dissolved in 0.15N sodium chloride. The volume of the foot was determined immediately and again 3 hours later. The difference was recorded as edema volume. Foot volume was measured by immersion of the foot in water at the level of the lateral malleolus, and determining the volume of water displaced by the foot. The ED50 may be defined as the dose in which edema formation is inhibited by 25 percent or more in 50 percent of the rats when compared to the mean value of the controls.

SMILES	ED50 [mg/kg]
CC1CCON2C(=O)c3cc(Cl)ccc3OC12 (stereo not drawn) [Example 6, 8-chloro-4-methyl-2,3,4,4a-tetrahydro-10H-1,2-oxazino(3,2-b)(1,3)benzoxazin-10-one]	195 ± 96
CC1CCC2Oc3ccc(Cl)cc3C(=O)N2O1 (stereo not drawn) [Example 4, 8-chloro-2-methyl-2,3,4,4a-tetrahydro-10H-1,2-oxazino(3,2-b)(1,3)benzoxazin-10-one]	270 ± 185
O=C1c2ccccc2OC2CCCON12 (stereo not drawn) [Example 2, 2,3,4,4a-tetrahydro-10H-1,2-oxazino(3,2-b) (1,3)benzoxazin-10-one]	65 ± 22
O=C1c2cc(Cl)ccc2OC2CCCON12 (stereo not drawn) [Example 1, 8-chloro-2,3,4,4a-tetrahydro-10H-1,2-oxazino (3,2-b)(1,3)benzoxazin-10-one]	100 ± 27
Cc1ccc2c(c1)C(=O)N1OCCCC1O2 (stereo not drawn) [Example 3, 8-methyl-2,3,4,4a-tetrahydro-10H-1,2oxazino (3,2-b)(1,3)benzoxazine-10-one]	> 300
CC1CON2C(=O)c3cc(Cl)ccc3OC2C1 (stereo not drawn) [Example 5, 8-chloro-3-methyl-2,3,4,4a-tetrahydro-10H-1,2-oxazino(3,2-b)(1,3)benzoxazin-10-one]	160 ± 73
